Test results taken from patent US8163804B2 (priority 2005, dated 2012).
Like-named read-outs stand apart in the source and are kept apart here.

Key:
[1] = system: Tiger Moth (Trichoplusia ni); assay: Insecticidal test on tiger moth, cabbage leaf dip, mortality after 6 days; type: in vivo; conditions: 0.5 ppm; 6 days after treatment
Description: Insecticidal Test on Tiger Moth (Trichoplusia ni)
Cut leaves of cabbages (cultivar: shiki-kaku) were immersed in a liquid chemical which was diluted and prepared to the prescribed concentration for 30 seconds, air-dried, and then put into a plastic vessel having a diameter of 9 cm. Each of 10 second-stage insects of Trichoplusia ni was inoculated and the resulting vessel was allowed to stand in an isothermal chamber maintained at 25 degree centigrade. After 6 days from the treatment, the number of surviving insects was examined and the mortality was calculated (two replications of 10 insects per plot).

[2] = system: Powdery Mildew (Sphaerotheca fuliginea); assay: Control test on powdery mildew of cucumbers, spray, control value from severity index; type: in vivo; conditions: 10 ppm
Description: (§1) Insecticidal Test on Cucumber Moth (Diaphania indica) and Control Test on Powdery Mildew (Sphaerotheca fuliginea) of Cucumbers
(§2) A liquid chemical which was prepared to the prescribed concentration was sufficiently sprayed on cucumbers (cultivar: sagami-hanpaku) cultured in a greenhouse. After 7 days from spraying, leaves were cut off and put into a plastic cup (diameter: 10 cm, height: 10 cm) along with 5 of second-stage larvae of Diaphania indica, and the mortality was examined 4 days thereafter. Furthermore, 1 day after spraying, the leaves of cucumbers which were previously arranged to be infected by pathogen were uniformly wiped with Sphaerotheca fuliginea thereon using a paintbrush for inoculation and examined after 10 days thereafter. The area occupied by lesion per leaf of cucumber was examined in accordance with the following index, and the control value was calculated from the average severity index of each plot according to the following equation (two replications).
Severity Index • 0: No lesion • 1: Lesion area was not more than 5% • 2: Lesion area was from 6 to 25% • 3: Lesion area was from 26 to 50% • 4: Lesion area was not less than 51% Control Value=(1−average severity in the treated plot/average severity in the untreated plot)×100

[3] = system: Turnip Moth (Agrotis segetum); assay: Control test on turnip moth of cabbage, soil treatment, rate of infected stumps after 7 days; type: in vivo; conditions: 100 gai/10a; 7 days after treatment
Description: (§3) Control Test on Turnip Moth (Agrotis segetum) and Clubroot (Plasmodiophora brassicae) of Cabbage due to Soil Treatment
(§4) A powder in a prescribed amount was mixed to soil and cabbages (cultivar: shiki-kaku) cultured on a cell medium were planted out. After 7 days from the treatment, the number of infected stumps due to Agrotis segetum was examined and the rate of infected stumps was calculated. Furthermore, after 60 days from the treatment, stumps were picked out, and lesion formation of Plasmodiophora brassicase was examined according to the degrees of severity. The control value was calculated from the average severity index of each plot according to the following equation. In the Table, gai represents the amount of active ingredients (g).

[4] = system: Green Peach Aphid (Myzus persicae); type: in vivo; conditions: 3 ppm, foliar spray on eggplant, 5 days after spraying
[5] = system: Resistant Cotton Melon Aphid (Aphis gossypii); type: in vivo; conditions: 3 ppm, foliar spray on cucumber, 5 days after spraying
[6] = system: Sheath Blight (Rhizoctonia solani); assay: Control test on sheath blight of paddy rice, powder spray, rate of infected stumps after 30 days; type: in vivo; conditions: 20 gai/10a; 30 days after spraying
From the text: (§5) Control Test on Common Straight Swift Butterfly (Parnara guttata) and Sheath Blight (Rhizoctonia solani) of Paddy Rice
(§6) A powder of a prescribed amount was sprayed on rice (cultivar: koshihikari) after 70 days from the transplantation (middle of May) Leaves on which Parnara guttata was parasitic before spraying were eliminated. After 20 days from spraying, the number of insects was examined for 100 stumps in each plot. Furthermore, 7 days before spraying, Rhizoctonia solani cultured on a bran medium was inoculated into the base of the plant. After 30 days from spraying, the number of infected stumps was examined for 100 stumps in each plot and the rate of infected stumps was calculated. In the Table, gai represents the amount of active ingredients (g).

[7] = system: Cucumber Moth (Diaphania indica); assay: Insecticidal test on cucumber moth, sprayed cucumber leaves, mortality; type: in vivo; conditions: 10 ppm
Description: as §1, §2

[8] = system: Common Straight Swift Butterfly (Parnara guttata); assay: Control test on common straight swift butterfly of paddy rice, powder spray, number of insects after 20 days (Test Example 8); type: in vivo; conditions: 20 gai/10a; 20 days after spraying
[9] = system: Common Straight Swift Butterfly (Parnara guttata); assay: Control test on common straight swift butterfly of paddy rice, powder spray, number of insects after 20 days (Test Example 9); type: in vivo; conditions: 20 gai/10a; 20 days after spraying
From the text: as §5, §6

[10] = system: Rice Blast (Pyricularia oryzae); type: in vivo; conditions: in vivo
[11] = system: Small Brown Planthopper (Laodelphax striatellus); assay: Insecticidal test on small brown planthopper, sprayed rice seedlings, mortality after 6 days; type: in vivo; conditions: 3 ppm, sprayed rice seedlings, 6 days after treatment
Description: Insecticidal Test on Small Brown Planthopper (Laodelphax striatellus)
A liquid chemical which was diluted and prepared to the prescribed concentration was sprayed on rice seedlings (cultivar: koshihikari), air-dried, and then 10 three-stage insects of Laodelphax striatellus were put into a glass test tube having a diameter of 3 cm and a height of 10 cm along with the seedlings. The test tube was cotton plugged. After 6 days from the treatment, the number of surviving insects was examined and the mortality was calculated (two replications of 10 insects per plot).

[12] = system: 2-spotted Spider Mite (Tetranychus urticae); assay: Insecticidal test on 2-spotted spider mite, kidney bean leaf disc with eggs, hatchability of larvae after 6 days; type: in vivo; conditions: 50 ppm; 6 days after spraying
Description: Insecticidal Test on 2-spotted Spider Mite (Tetranychus urticae)
A plastic cup having a diameter of 8 cm was filled with water and covered by a lid with a hole having a diameter of 1 cm. Absorbent cotton was put on the top of the lid and dropped into water from the lid such that the absorbent cotton was always in a wet state due to a capillary phenomenon. A leaf disc having a diameter of 2 cm was prepared with primary leaves of kidney beans (cultivar: Green top) and placed on the aforementioned absorbent cotton. 4 adult female insects of Tetranychus urticae were inoculated thereon. Next day, the adult female insects were removed, and then the number of insect egg was examined. A liquid chemical which was prepared to the prescribed concentration was sprayed by using a vertical sprayer. After spraying, the resulting cup was allowed to stand in an isothermal chamber maintained at 25 degree centigrade. After 6 days from spraying, the number of hatched larvae that survived on the leaf disc was examined and the hatchability of larvae was calculated (two replications of one concentration per chemical).

[13] = system: Clubroot (Plasmodiophora brassicae); assay: Control test on clubroot of cabbage, soil treatment, control value after 60 days; type: in vivo; conditions: 100 gai/10a; 60 days after treatment
Description: as §3, §4
Severity Index • 0: No clubroot attached • 1: Clubroot was attached at a portion of from 1 to 25% of the whole root • 2: Clubroot was attached at a portion of from 25 to 50% of the whole root • 3: Clubroot was attached at a portion of from 50 to 75% of the whole root • 4: Clubroot was attached at a portion of from 75% or more of the whole root Control Value=(1−average severity in the treated plot/average severity in the untreated plot)×100

[14] = system: Oriental Fruit Moth (Grapholita molesta); assay: Control test on oriental fruit moth of pear, spray, rate of infected fruit after 40 days; type: in vivo; conditions: 50 ppm; 40 days after spraying
Description: (§7) Control Test on Oriental Fruit Moth (Grapholita molesta) and Scab (Venturia nashicola) of Pear
(§8) A liquid chemical which was prepared to the prescribed concentration was sufficiently sprayed on 17-year-old pears (cultivar: Hosui) (early June). After 40 days from spraying, the number of infected fruits due to Grapholita molesta was examined for all fruit in the plot, and the rate of infected fruit was calculated. Furthermore, after 14 days from spraying, infection of Venturia nashicola was examined by the degrees for optional 200 leaves in the plot and the severity index was calculated according to the following equation. Severity index=Z(number of infected leaves by the degrees×index)×100/(number of examined leaves×5)

[15] = system: Scab (Venturia nashicola); assay: Control test on scab of pear, spray, severity index after 14 days; type: in vivo; conditions: 50 ppm; 14 days after spraying
Description: as §7, §8

[16] = system: Rice Leafroller (Cnaphalocrocis medinalis); assay: Control test on rice leafroller, nursery box application of paddy rice, infected leaf rate after 50 days; type: in vivo; conditions: 5 gai/box; 50 days after transplantation
Description: (§9) Control Test on Small Brown Planthopper (Laodelphax striatellus) and Rice Leafroller (Cnaphalocrocis medinalis) on Nursery Box Application of Paddy Rice
(§10) Rice (cultivar: Nihonbare) cultured in a nursery box was treated with 50 g of a granule formulation per box, and then transplanted to the rice field. For the control effect against Laodelphax striatellus, the number of parasitic insects was examined for 30 stumps per plot after 40 days and 60 days from the transplantation. In addition, for the control effect against Cnaphalocrocis medinalis, the number of infected leaves was examined for 100 stumps per plot after 50 days from the transplantation, and the infected leaf rate was calculated. In the Table, gai represents the amount of active ingredients (g).

[17] = system: Rice Blast (Pyricularia oryzae); type: in vivo; conditions: in vivo; remark: listed apart in the source
[18] = system: Rice Striped Stem Borer (Chilo suppressalis); conditions: 5 gai/box
[19] = system: Small Brown Planthopper (Laodelphax striatellus); assay: Control test on small brown planthopper, nursery box application of paddy rice, number of parasitic insects after 40 and 60 days; type: in vivo; conditions: 5 gai/box
Description: as §9, §10

| Compound | Mortality (%) [1] [%] | Sphaerotheca fuliginea Control value [2] | Agrotis segetum Infected stump rate (%) [3] [%] | Control rate (%) [4] [%] | Control rate (%) [5] [%] | Rate of infected stumps (%) [6] [%] | Diaphania indica Mortality (%) [7] [%] | Number (insects/100 stumps) [8] [insects/100 stumps] | Number of insects (number/100 stumps) [9] [number/100 stumps] | Pyricularia oryzae Control value [10] | Mortality (%) [11] [%] | Hatchability of larvae (%) [12] [%] | Plasmodiophora brassicae Control value [13] | Grapholita molesta Infected fruit rate (%) [14] [%] | Venturia nashicola Severity index [15] | Cnaphalocrocis medinalis Infected leaf rate (%) [16] [%] | Pyricularia oryzae Control value [17] | Chilo suppressalis Mortality (%) [18] [%] | Laodelphax striatellus Number of parasitic insects/30 stumps ([19]; 40 days) [insects/30 stumps] | Laodelphax striatellus Number of parasitic insects/30 stumps ([19]; 60 days) [insects/30 stumps] |
| --- | --- | --- | --- | --- | --- | --- | --- | --- | --- | --- | --- | --- | --- | --- | --- | --- | --- | --- | --- | --- |
| Cc1cc(C(F)(C(F)(F)F)C(F)(F)F)cc(C)c1NC(=O)c1cccc(N(C)C(=O)c2ccccc2)c1F [Compound 1208] | 75 | 0 | 2.8 | 20 | 18 | 99 | 95 | 1 | 1 | 5 | 10 | 78 | 9 | 1.9 | 52.4 |  |  |  |  |  |
| Cc1cc(C(F)(C(F)(F)F)C(F)(F)F)cc(C)c1NC(=O)c1cccc(N(C)C(=O)c2cccnc2Cl)c1F [Compound 1245] | 70 | 0 | 2.8 | 12 | 15 | 98 | 90 | 2 | 2 | 0 | 5 | 85 | 6 | 2.8 | 51.6 | 0.32 | 0 | 95 | 82 | 140 |
| Cc1cc(C(F)(C(F)(F)F)C(F)(F)F)cc(C)c1NC(=O)c1cccc(NC(=O)c2ccccc2)c1F [Compound No. 601, N-(2,6-dimethyl-4-heptafluoroisopropyl)phenyl 3-(benzoylamino)-2-fluorobenzamide] |  | 0 | 2.8 |  |  | 96 | 95 | 1 | 2 | 7 |  |  | 0 | 2.3 | 53.0 |  |  |  |  |  |
| O=C(Nc1cccc(C(=O)Nc2c(Br)cc(C(F)(C(F)(F)F)C(F)(F)F)cc2SC(F)(F)F)c1)c1ccccc1 [Compound 210] | 70 | 0 | 2.8 | 7 | 12 | 98 | 95 | 1 | 1 | 3 | 15 | 80 | 0 | 1.7 | 50.6 |  |  |  |  |  |
